Data taken from PubChem BioAssay AID1259407 (Chemical Carcinogenesis Research Information System (CCRIS), 2018).
Calls of active or inactive are those of the source. No rule for the calls is given here.

Test system: CCRIS mutagenicity, Ames/micronucleus/aberration tests
Assay: CCRIS mutagenicity studies
[1] = Test System: AMES SALMONELLA TYPHIMURIUM, Strain/Indicator: TA98, Metabolic Activation: NONE, Method: PREINCUBATION
[2] = Test System: AMES SALMONELLA TYPHIMURIUM, Strain/Indicator: TA98, Metabolic Activation: NONE, Method: STANDARD PLATE
[3] = Test System: AMES SALMONELLA TYPHIMURIUM, Strain/Indicator: TA100, Metabolic Activation: NONE, Method: PREINCUBATION
[4] = Test System: AMES SALMONELLA TYPHIMURIUM, Strain/Indicator: TA100, Metabolic Activation: NONE, Method: STANDARD PLATE
[5] = Test System: AMES SALMONELLA TYPHIMURIUM, Strain/Indicator: TA100, Metabolic Activation: RAT, LIVER, S-9, AROCLOR 1254, Method: STANDARD PLATE

## COc1ccc(N)c(OC)c1
Test System: AMES SALMONELLA TYPHIMURIUM, Strain/Indicator: TA98, Metabolic Activation: HAMSTER, LIVER, S-9, AROCLOR 1254 (30%), Method: PREINCUBATION
  mutagenic call: active; positive
Test System: AMES SALMONELLA TYPHIMURIUM, Strain/Indicator: TA98, Metabolic Activation: HAMSTER, LIVER, S-9, Method: STANDARD PLATE
  mutagenic call: inactive; negative
Test System: AMES SALMONELLA TYPHIMURIUM, Strain/Indicator: TA98, Metabolic Activation: MOUSE, LIVER, S-9, AROCLOR 1254, Method: STANDARD PLATE
  mutagenic call: inactive; negative
Test System: AMES SALMONELLA TYPHIMURIUM, Strain/Indicator: TA98, Metabolic Activation: MOUSE, LIVER, S-9, Method: STANDARD PLATE
  mutagenic call: inactive; negative
[1]
  mutagenic call: inactive; negative
[2]
  mutagenic call: inactive; negative
Test System: AMES SALMONELLA TYPHIMURIUM, Strain/Indicator: TA98, Metabolic Activation: RAT, LIVER, S-9, AROCLOR 1254 (30%), Method: PREINCUBATION
  mutagenic call: active; positive
Test System: AMES SALMONELLA TYPHIMURIUM, Strain/Indicator: TA98, Metabolic Activation: RAT, LIVER, S-9, Method: STANDARD PLATE
  mutagenic call: inactive; negative
Test System: AMES SALMONELLA TYPHIMURIUM, Strain/Indicator: TA100, Metabolic Activation: HAMSTER, LIVER, S-9, AROCLOR 1254 (30%), Method: PREINCUBATION
  mutagenic call: active; positive
Test System: AMES SALMONELLA TYPHIMURIUM, Strain/Indicator: TA100, Metabolic Activation: HAMSTER, LIVER, S-9, AROCLOR 1254, Method: STANDARD PLATE
  mutagenic call: inactive; negative
Test System: AMES SALMONELLA TYPHIMURIUM, Strain/Indicator: TA100, Metabolic Activation: HAMSTER, LIVER, S-9, Method: STANDARD PLATE
  mutagenic call: inactive; negative
Test System: AMES SALMONELLA TYPHIMURIUM, Strain/Indicator: TA100, Metabolic Activation: MOUSE, LIVER, S-9, AROCLOR 1254, Method: STANDARD PLATE
  mutagenic call: inactive; negative
Test System: AMES SALMONELLA TYPHIMURIUM, Strain/Indicator: TA100, Metabolic Activation: MOUSE, LIVER, S-9, Method: STANDARD PLATE
  mutagenic call: inactive; negative
[3]
  mutagenic call: inactive; negative
[4]
  mutagenic call: inactive; negative
Test System: AMES SALMONELLA TYPHIMURIUM, Strain/Indicator: TA100, Metabolic Activation: RAT, LIVER, S-9, AROCLOR 1254 (30%), Method: PREINCUBATION
  mutagenic call: inactive; negative
[5]
  mutagenic call: inactive; negative
Test System: AMES SALMONELLA TYPHIMURIUM, Strain/Indicator: TA100, Metabolic Activation: RAT, LIVER, S-9, Method: STANDARD PLATE
  mutagenic call: inactive; negative
Test System: AMES SALMONELLA TYPHIMURIUM, Strain/Indicator: TA1535, Metabolic Activation: HAMSTER, LIVER, S-9, AROCLOR 1254, Method: STANDARD PLATE
  mutagenic call: inactive; negative
Test System: AMES SALMONELLA TYPHIMURIUM, Strain/Indicator: TA1535, Metabolic Activation: HAMSTER, LIVER, S-9, Method: STANDARD PLATE
  mutagenic call: inactive; negative
Test System: AMES SALMONELLA TYPHIMURIUM, Strain/Indicator: TA1535, Metabolic Activation: MOUSE, LIVER, S-9, AROCLOR 1254, Method: STANDARD PLATE
  mutagenic call: inactive; negative
Test System: AMES SALMONELLA TYPHIMURIUM, Strain/Indicator: TA1535, Metabolic Activation: MOUSE, LIVER, S-9, Method: STANDARD PLATE
  mutagenic call: inactive; negative
Test System: AMES SALMONELLA TYPHIMURIUM, Strain/Indicator: TA1535, Metabolic Activation: NONE, Method: STANDARD PLATE
  mutagenic call: inactive; negative
Test System: AMES SALMONELLA TYPHIMURIUM, Strain/Indicator: TA1535, Metabolic Activation: RAT, LIVER, S-9, AROCLOR 1254, Method: STANDARD PLATE
  mutagenic call: inactive; negative
Test System: AMES SALMONELLA TYPHIMURIUM, Strain/Indicator: TA1535, Metabolic Activation: RAT, LIVER, S-9, Method: STANDARD PLATE
  mutagenic call: inactive; negative
Test System: AMES SALMONELLA TYPHIMURIUM, Strain/Indicator: TA1537, Metabolic Activation: HAMSTER, LIVER, S-9, Method: STANDARD PLATE
  mutagenic call: inactive; negative
Test System: AMES SALMONELLA TYPHIMURIUM, Strain/Indicator: TA1537, Metabolic Activation: MOUSE, LIVER, S-9, AROCLOR 1254, Method: STANDARD PLATE
  mutagenic call: inactive; negative
Test System: AMES SALMONELLA TYPHIMURIUM, Strain/Indicator: TA1537, Metabolic Activation: MOUSE, LIVER, S-9, Method: STANDARD PLATE
  mutagenic call: inactive; negative
Test System: AMES SALMONELLA TYPHIMURIUM, Strain/Indicator: TA1537, Metabolic Activation: NONE, Method: STANDARD PLATE
  mutagenic call: inactive; negative
Test System: AMES SALMONELLA TYPHIMURIUM, Strain/Indicator: TA1537, Metabolic Activation: RAT, LIVER, S-9, AROCLOR 1254, Method: STANDARD PLATE
  mutagenic call: inactive; negative
Test System: AMES SALMONELLA TYPHIMURIUM, Strain/Indicator: TA1537, Metabolic Activation: RAT, LIVER, S-9, Method: STANDARD PLATE
  mutagenic call: inactive; negative
Test System: AMES SALMONELLA TYPHIMURIUM, Strain/Indicator: TA1538, Metabolic Activation: MOUSE, LIVER, S-9, Method: STANDARD PLATE
  mutagenic call: inactive; negative
Test System: AMES SALMONELLA TYPHIMURIUM, Strain/Indicator: TA1538, Metabolic Activation: NONE, Method: STANDARD PLATE
  mutagenic call: inactive; negative
Test System: AMES SALMONELLA TYPHIMURIUM, Strain/Indicator: TA1538, Metabolic Activation: RAT, LIVER, S-9, Method: STANDARD PLATE
  mutagenic call: inactive; negative
Test System: E. COLI, Strain/Indicator: WP2 UVRA, Metabolic Activation: HAMSTER, LIVER, S-9, AROCLOR 1254, Method: STANDARD PLATE
  mutagenic call: inactive; negative
Test System: E. COLI, Strain/Indicator: WP2 UVRA, Metabolic Activation: HAMSTER, LIVER, S-9, Method: STANDARD PLATE
  mutagenic call: inactive; negative
Test System: E. COLI, Strain/Indicator: WP2 UVRA, Metabolic Activation: MOUSE, LIVER, S-9, AROCLOR 1254, Method: STANDARD PLATE
  mutagenic call: inactive; negative
Test System: E. COLI, Strain/Indicator: WP2 UVRA, Metabolic Activation: MOUSE, LIVER, S-9, Method: STANDARD PLATE
  mutagenic call: inactive; negative
Test System: E. COLI, Strain/Indicator: WP2 UVRA, Metabolic Activation: NONE, Method: STANDARD PLATE
  mutagenic call: inactive; negative
Test System: E. COLI, Strain/Indicator: WP2 UVRA, Metabolic Activation: RAT, LIVER, S-9, AROCLOR 1254, Method: STANDARD PLATE
  mutagenic call: inactive; negative
Test System: E. COLI, Strain/Indicator: WP2 UVRA, Metabolic Activation: RAT, LIVER, S-9, Method: STANDARD PLATE
  mutagenic call: inactive; negative

## CC(=O)c1cccn1[N+](=O)[O-]
[2]
  mutagenic call: active; positive
Test System: AMES SALMONELLA TYPHIMURIUM, Strain/Indicator: TA98, Metabolic Activation: RAT, LIVER, S-9, AROCLOR 1254, Method: STANDARD PLATE
  mutagenic call: active; positive
[4]
  mutagenic call: active; positive
[5]
  mutagenic call: active; positive

## CC(=O)c1cccc(N=[N+]([O-])c2ccc(N)c(C(C)=O)c2C)c1C
[1]
  mutagenic call: inactive; negative
Test System: AMES SALMONELLA TYPHIMURIUM, Strain/Indicator: TA98, Metabolic Activation: RAT, LIVER, S-9, PHENOBARBITAL AND 5,6-BENZOFLAVONE, Method: PREINCUBATION
  mutagenic call: inactive; negative
[3]
  mutagenic call: inactive; negative
Test System: AMES SALMONELLA TYPHIMURIUM, Strain/Indicator: TA100, Metabolic Activation: RAT, LIVER, S-9, PHENOBARBITAL AND 5,6-BENZOFLAVONE, Method: PREINCUBATION
  mutagenic call: inactive; negative

## Nc1ccc2ccc3c4ccccc4cc4ccc1c2c43
Test System: AMES SALMONELLA TYPHIMURIUM, Strain/Indicator: TA98, Metabolic Activation: NONE
  mutagenic call: active; positive
Test System: AMES SALMONELLA TYPHIMURIUM, Strain/Indicator: TA98, Metabolic Activation: RAT, LIVER, S-9, AROCLOR 1254
  mutagenic call: active; positive

## CO[C@]1(CC[C@@H](C)CO[C@@H]2O[C@H](CO)[C@@H](O)[C@H](O)[C@H]2O)O[C@H]2C[C@H]3[C@@H]4CC=C5C[C@@H](O[C@@H]6O[C@H](CO)[C@@H](O[C@@H]7O[C@@H](C)[C@H](O)[C@@H](O)[C@H]7O)[C@H](O)C6O[C@@H]6O[C@@H](C)[C@H](O)[C@@H](O)[C@H]6O)CC[C@]5(C)[C@H]4CC[C@]3(C)[C@H]2[C@@H]1C (stereo not given in full)
[2]
  mutagenic call: inactive; negative
Test System: AMES SALMONELLA TYPHIMURIUM, Strain/Indicator: TA98, Metabolic Activation: RAT, LIVER, S-9, PHENOBARBITAL, Method: STANDARD PLATE
  mutagenic call: inactive; negative
[4]
  mutagenic call: inactive; negative
Test System: AMES SALMONELLA TYPHIMURIUM, Strain/Indicator: TA100, Metabolic Activation: RAT, LIVER, S-9, PHENOBARBITAL, Method: STANDARD PLATE
  mutagenic call: inactive; negative
